From patent publication US7527812B2, “Herbal composition for treating cancer” (Sheng Foong Pharmaceutical Co., Ltd., priority 2005, dated 2009) come the findings set out here.

Common to all, as to type: cell-based
Assay [1] concerns HCT 116 colorectal carcinoma cells. The experiment in a line: in vitro cytotoxicity assay (MTS), HCT 116. Particulars: Homo sapiens, HCT 116, 72 hours exposure, read-out: IC50 (concentration that inhibits 50% of cell growth). An excerpt:
(§1) To examine the effects of the present composition SF-01 on inhibition of cancer/tumor cells, various human cell lines were used, including one normal cell line and eight cancer/tumor cell lines: • 1. RPTEC (Cambrex): Normal renal proxima tubule epithelial cell, Human • 2. A-498 (ATCC HTB-44): Kidney carcinoma, Human • 3. HCT 116 (ATCC CCL-247): Colorectal carcinoma, Human • 4. Hep 3B (ATCC HB-8064): Hepatocellular carcinoma, Human • 5. LNCap clone FGC (ATCC CRL-1740): Prostate carcinoma, Human • 6. MCF-7 (ATCC HTB-22): Mammary gland adenocarcinoma, Human • 7. MKN45 (FDSC JCRB0245): Stomach carcinoma, Human • 8. NCI-H226 (ATCC CRL-5826): Lung carcinoma, Human • 9. NPC-TW01 (School of Medicine, NTU): Nasal-pharyngeal carcinoma, Human […]
(§2) To evaluate the antitumoral activity of SF-01 towards various human cancer cell lines and measure the potential cytotoxicity of SF-01 towards the primary human renal cell lines (RPTEC), an in vitro cytotoxicity assay was carried out. […] To quantify the metabolically viable cells, the conversion of MTS to formazan was measured by absorbance at 490 nm in a 96-well microtiter plate reader. […] The percentage of cytostasis was calculated by the formula: Cytostasis (%)=[1−(B/A)]×100, where A is the absorbance of the untreated control and B is the absorbance of the treated cell. […]

The subject of assay [2] is NPC-TW01 nasal-pharyngeal carcinoma cells. The experiment in a line: in vitro cytotoxicity assay (MTS), NPC-TW01. Particulars: Homo sapiens, NPC-TW01, 72 hours exposure, read-out: IC50 (concentration that inhibits 50% of cell growth).
Text: as §1, §2

For assay [3], the system named is Hep 3B hepatocellular carcinoma cells. The experiment in a line: in vitro cytotoxicity assay (MTS), Hep 3B. The settings on record: Homo sapiens, Hep3B, 72 hours exposure, read-out: IC50 (concentration that inhibits 50% of cell growth).
Text: as §1, §2

Assay [4] has as its system RPTEC normal renal proximal tubule epithelial cells. The experiment in a line: in vitro cytotoxicity assay (MTS), normal cell RPTEC. Particulars: Homo sapiens, 72 hours exposure, read-out: IC50 (concentration that inhibits 50% of cell growth).
Text: as §1, §2

In assay [5] the test system is A-498 kidney carcinoma cells. The experiment in a line: in vitro cytotoxicity assay (MTS), A498. Particulars: Homo sapiens, A498, 72 hours exposure, read-out: IC50 (concentration that inhibits 50% of cell growth).
Text: as §1, §2

The subject of assay [6] is various human tumor cell lines. The experiment in a line: in vitro cytotoxicity assay (MTS), span over the tumor cell lines. The settings on record: span over the eight tumor cell lines, 72 hours exposure.
Text: as §1, §2

Assay [7] relates to LNCaP clone FGC prostate carcinoma cells. The experiment in a line: in vitro cytotoxicity assay (MTS), LNCaP clone FGC. Particulars: Homo sapiens, 72 hours exposure, read-out: IC50 (concentration that inhibits 50% of cell growth).
Text: as §1, §2

The test system of assay [8] is MCF-7 mammary gland adenocarcinoma cells. The experiment in a line: in vitro cytotoxicity assay (MTS), MCF-7. Particulars: Homo sapiens, MCF7, MCF-7, 72 hours exposure, read-out: IC50 (concentration that inhibits 50% of cell growth).
Text: as §1, §2

The test system of assay [9] is NCI-H226 lung carcinoma cells. The experiment in a line: in vitro cytotoxicity assay (MTS), NCI-H226. The settings on record: Homo sapiens, NCI-H226, 72 hours exposure, read-out: IC50 (concentration that inhibits 50% of cell growth).
Text: as §1, §2

For assay [10], the system named is MKN45 stomach carcinoma cells. The experiment in a line: in vitro cytotoxicity assay (MTS), MKN45. The settings on record: Homo sapiens, MKN-45, MKN45, 72 hours exposure, read-out: IC50 (concentration that inhibits 50% of cell growth).
Text: as §1, §2

For the compound `COc1cccc2c1C(=O)c1c(O)c3c(c(O)c1C2=O)C[C@@](O)(C(=O)CO)C[C@@H]3O[C@H]1C[C@H](N)[C@H](O)[C@H](C)O1` [Doxorubicin], the IC50 turned out to be 33 nM in assay [1]; 11 nM in [2]; 116 nM in [3]; 3180 nM in assay [4]; 782 nM in [5]; 14 nM in [7]. Moreover, the figures for the IC50 in assay [8], in assay [9] and in assay [10] were 70 nM, 123 nM and 58 nM, respectively. In [6], the “IC50 to various human tumor cell lines (span over the lines)” value lay in the range of 800 to 11 nM.

For `CC(=O)O[C@H]1C(=O)[C@@]2(C)[C@H]([C@H](OC(=O)c3ccccc3)[C@]3(O)C[C@H](OC(=O)[C@H](O)[C@@H](NC(=O)c4ccccc4)c4ccccc4)C(C)=C1C3(C)C)[C@]1(OC(C)=O)CO[C@@H]1C[C@@H]2O` [Taxol], the IC50 in assay [1] is less than 0.0256 nM; in assay [2] it was less than 0.0256 nM; in assay [3], 0.0256 nM; in assay [4] it was 406 nM; in assay [5] it was 11.1 nM; in assay [7] it was less than 0.0256 nM. Moreover, the IC50 is less than 0.0256 nM in [8], less than 0.64 nM in [9] and 0.0256 nM in assay [10]. Also, the “IC50 to various human tumor cell lines (span over the lines)” value in [6] lay in the range of 11 to 0.003 nM.
